Experimental data: US20170118987A1, “SYNERGISTIC HERBICIDAL COMPOSITION AND USE THEREOF” (ROTAM AGROCHEM INTERNATIONAL CO., LTD, priority 2015, published 2017)

Legend:
[1] = compared with the amorphous state; from U.S. Ser. No. 14/926,133; cited from earlier work
[2] = Stability of iodosulfuron-methyl-sodium solid forms; format: physicochemical; conditions: hydrolysis when dissolved or dispersed in water and during storage exposed to moisture

For COC(=O)c1ccc(I)cc1S(=O)(=O)NC(=O)Nc1nc(C)nc(OC)n1.[Na] [sodium salt of methyl 4-iodo-2-[[[[(4-methoxy-6-methyl-1,3,5-triazin-2-yl)amino]carbonyl]amino]sulfonyl]benzoate], which stability in formulations [1] is on record?
Its stability in formulations is “improved stability”.

What about the stability [2] of the same compound?
The stability was “highly unstable”.
